Source: article PMC11163866 (Journal of medicinal chemistry, 2024)
Counter-ions that a name gives are not always drawn.

Experiments:
L. mexicana amastigote = assay type: cell-based; conditions: Leishmania mexicana, J774.A1, read-out: inhibition at 0.1 μM vs L. mexicana
[1] = In vitro metabolic stability in human liver microsomes; assay type: in vitro ADME; conditions: 1 μM; 0.5 mg/mL microsomes; up to 60 min
[2] = In vitro metabolic stability in mouse liver microsomes; assay type: in vitro ADME; conditions: 1 μM; 0.5 mg/mL microsomes; up to 60 min
Plasmodium yoelli = Plasmodium yoelli infection in mice; assay type: in vivo; conditions: unpublished results
[3] = test system: Salmonella typhimurium TA100 and TA98; assay: Ames mutagenicity assay; assay type: cell-based; conditions: up to 10 μM, with and without S9
L. mexicana = assay: In vivo efficacy, murine model of cutaneous leishmaniasis; parameters: species or system BALB/c mice; conditions: oral gavage 40–60 mg/kg/d for 10 days

Row | Compound | inhibition of growth at 0.1 µM (L. mexicana amastigote) [%] | metabolic stability (t1/2, min) vs HLM [1] [min] | metabolic stability (t1/2, min) vs MLM [2] [min] | efficacy in curing Plasmodium yoelli infections in mice (Plasmodium yoelli) | Ames mutagenicity result [3] | in vivo efficacy compared with the other TAs tested (L. mexicana)
1 | COC1=CC(c2ccc[nH]2)=N/C1=C\Nc1ccccc1OC(F)(F)F [compound 59, (Z)-N-((4'-Methoxy-1H,5'H-[2,2'-bipyrrol]-5'-ylidene)methyl)-2-(trifluoromethoxy)aniline Hydrochloride] | ~30 | – | – | – | – | –
2 | CCC1=C(CC)/C(=C/N[C@H]2CC[C@H](C)CC2)N=C1c1ccc[nH]1.Cl [compound 95, (1r,4r)-N-((Z)-(3',4'-Diethyl-1H,5'H-[2,2'-bipyrrol]-5'-ylidene)methyl)-4-methylcyclohexan-1-amine Hydrochloride] | – | 23.3 | 37.5 | strong efficacy | – | –
3 | C(/NC1CCCCC1)=C1/N=C(c2ccc[nH]2)C2=C1CCCC2.Cl [compound 101, (Z)-N-((3-(1H-Pyrrol-2-yl)-4,5,6,7-tetrahydro-1H-isoindol-1-ylidene)methyl)cyclohexanamine Hydrochloride] | – | 26.7 | 33.0 | strong efficacy | – | –
4 | COc1ccc(Oc2ccc(N/C=C3\N=C(c4ccc[nH]4)C4=C3CCCC4)cc2)cc1.Cl [compound 108, (Z)-N-((3-(1H-Pyrrol-2-yl)-4,5,6,7-tetrahydro-1H-isoindol-1-ylidene)methyl)-4-(4-methoxyphenoxy)aniline Hydrochloride] | – | > 60.0 | > 60.0 | – | – | –
5 | Cc1ccc(Oc2ccc(N/C=C3\N=C(c4ccc[nH]4)C4=C3CCCC4)cc2)cc1.Cl [compound 109, (Z)-N-((3-(1H-Pyrrol-2-yl)-4,5,6,7-tetrahydro-1H-isoindol-1-ylidene)methyl)-4-(p-tolyloxy)aniline Hydrochloride] | – | > 60.0 | > 60.0 | – | – | –
6 | CCc1ccc(C2=N/C(=C\NC3CCCCCC3)C(C)=C2C)[nH]1.Cl [compound 110, (Z)-N-((5-Ethyl-3',4'-dimethyl-1H,5'H-[2,2'-bipyrrol]-5'-ylidene)methyl)cycloheptanamine Hydrochloride] | – | > 60.0 | > 60.0 | strong efficacy | negative | greater efficacy than both 95 and 101
7 | CC1=C(C)/C(=C/NC2CCCCCC2)N=C1c1ccc(CC(C)C)[nH]1.Cl [compound 111, (Z)-N-((5-Isobutyl-3',4'-dimethyl-1H,5'H-[2,2'-bipyrrol]-5'-ylidene)methyl)cycloheptanamine Hydrochloride] | – | > 60.0 | > 60.0 | – | – | –
8 | CCc1ccc(C2=N/C(=C\NC3CCCCCCC3)C(C)=C2C)[nH]1.Cl [compound 112, (Z)-N-((5-Ethyl-3',4'-dimethyl-1H,5'H-[2,2'-bipyrrol]-5'-ylidene)methyl)cyclooctanamine Hydrochloride] | – | > 60.0 | > 60.0 | – | – | –
9 | CCc1c(C)[nH]c(C2=N/C(=C\NC34CC5CC(CC(C5)C3)C4)C(C)=C2C)c1C.Cl [compound 116] | – | > 60.0 | 29.0 | – | – | –
10 | CCc1ccc(C2=N/C(=C\NC3CCCCCC3)C(OC)=C2)[nH]1.Cl [compound 117, (Z)-N-((5-Ethyl-4'-methoxy-1H,5'H-[2,2'-bipyrrol]-5'-ylidene)methyl)cycloheptanamine Hydrochloride] | – | > 60.0 | 7.98 | – | – | –
11 | COC1=CC(c2ccc(-c3ccc(OC)cc3)[nH]2)=N/C1=C\NC1CCCCCC1.Cl [compound 118, (Z)-N-((4'-Methoxy-5-(4-methoxyphenyl)-1H,5'H-[2,2'-bipyrrol]-5'-ylidene)methyl)cycloheptanamine Hydrochloride] | – | > 60.0 | > 60.0 | – | – | –
12 | COC1=CC(c2ccc(Cc3ccc(OC)cc3)[nH]2)=N/C1=C\NC1CCCC1.Cl [compound 119, (Z)-N-((4'-Methoxy-5-(4-methoxybenzyl)-1H,5'H-[2,2'-bipyrrol]-5'-ylidene)methyl)cyclopentanamine Hydrochloride] | – | 11.7 | 10.4 | – | – | –
13 | COC1=CC(c2ccc(Cc3ccc(OC)cc3)[nH]2)=N/C1=C\NC1CCCCC1.Cl [compound 120, (Z)-N-((4'-Methoxy-5-(4-methoxybenzyl)-1H,5'H-[2,2'-bipyrrol]-5'-ylidene)methyl)cyclohexanamine Hydrochloride] | – | 19.7 | 13.8 | – | – | –
14 | COC1=CC(c2ccc(Cc3ccc(OC)cc3)[nH]2)=N/C1=C\NC1CCCCCC1.Cl [compound 121, (Z)-N-((4'-Methoxy-5-(4-methoxybenzyl)-1H,5'H-[2,2'-bipyrrol]-5'-ylidene)methyl)cycloheptanamine Hydrochloride] | – | 25.6 | 14.8 | – | – | –
15 | COC1=CC(c2ccc(Cc3ccc(OC)cc3)[nH]2)=N/C1=C\NC1CCCCCCC1.Cl [compound 122, (Z)-N-((4'-Methoxy-5-(4-methoxybenzyl)-1H,5'H-[2,2'-bipyrrol]-5'-ylidene)methyl)cyclooctanamine Hydrochloride] | – | 50.8 | 16.5 | – | – | –
16 | COC1=CC(c2ccc(Cc3ccc(OC)cc3)[nH]2)=N/C1=C\NC12CC3CC(CC(C3)C1)C2.Cl [compound 123, (3s,5s,7s)-N-((Z)-(4'-Methoxy-5-(4-methoxybenzyl)-1H,5'H-[2,2'-bipyrrol]-5'-ylidene)methyl)adamantan-1-amine Hydrochloride] | – | > 60.0 | > 60.0 | – | – | –
